Article PMC11156913, “New sulfonamide-based glycosides incorporated 1,2,3-triazole as cytotoxic agents through VEGFR-2 and carbonic anhydrase inhibitory activity” (Scientific Reports, 2024)

Legend:
hCA XII = molecular target: T1, hCA XII (Homo sapiens, UniProt O43570); experiment: Carbonic anhydrase inhibition, stopped-flow CO2 hydration, hCA XII; type: biochemical; conditions: read-out: IC50 (mean ± SD) Carbonic anhydrase isoforms hCA XII
T1 construct: made in house
Description: (§1) There was further information in the supplemental file.
(§2) An applied photophysics stopped-flow instrument was used for assaying the CA-catalyzed CO2 hydration activity. […] The CO2 concentrations ranged from 1.7 to 17 mM for the determination of the kinetic parameters and inhibition constants. For each inhibitor, at least six traces of the initial 5–10% of the reaction were used for determining the initial rate. The uncatalyzed rates were determined in the same manner and subtracted from the total observed rates. Stock solutions of inhibitor (0.1 mM) were prepared in distilled-deionized water, and dilutions up to 0.01 nM were done thereafter with distilled-deionized water. Inhibitor and enzyme solutions were preincubated together for 15 min at room temperature before assay in order to allow for the formation of the E-I complex. The inhibition constants were obtained by nonlinear least-squares methods using PRISM 3, and the Cheng –Prusoff equation, and represent the mean from at least three different determinations. All CA isoforms were recombinant ones obtained in-house.

hCA IX = molecular target: T2, hCA IX (Homo sapiens, UniProt Q16790); experiment: Carbonic anhydrase inhibition, stopped-flow CO2 hydration, hCA IX; type: biochemical; conditions: read-out: IC50 (mean ± SD) Carbonic anhydrase isoforms hCA IX
T2 construct: made in house
Description: as §1, §2

[1] = tested on: lung A-549 cancer cell line; experiment: In vitro cytotoxic activity (MTT assay), A-549
[2] = tested on: breast MCF-7 cancer cell line; experiment: In vitro cytotoxic activity (MTT assay), MCF-7; type: cell-based, human
Text: (§3) The supplemental file contained extra details.

[3] = tested on: retinal pigment epithelial normal RPE-1 cell line; experiment: Cytotoxic activity (MTT assay) against normal cell line RPE-1; type: cell-based; conditions: Homo sapiens, normal RPE-1 cells, read-out: IC50 (mean ± SD) RPE-1
Text: Furthermore, the MTT assay was utilized to estimate the cytotoxic activity of the extremely potent derivatives 4, 7 and 9 against the normal cell line RPE-1, with the aim of examining their safety profiles (Table 1). […] They could therefore be thought of as safe cytotoxic agents.
as §3

[4] = tested on: colorectal HCT-116 cancer cell line; experiment: In vitro cytotoxic activity (MTT assay), HCT-116; type: cell-based, human
Text: as §3

VEGFR-2 = VEGFR-2 (Homo sapiens, UniProt P35968); experiment: In vitro inhibitory assessment against VEGFR-2 (ELISA, MCF-7 cell homogenates); type: cell-based; conditions: read-out: IC50 (mean ± SD) VEGFR-2
Sequence of VEGFR-2 (P35968 20-1356): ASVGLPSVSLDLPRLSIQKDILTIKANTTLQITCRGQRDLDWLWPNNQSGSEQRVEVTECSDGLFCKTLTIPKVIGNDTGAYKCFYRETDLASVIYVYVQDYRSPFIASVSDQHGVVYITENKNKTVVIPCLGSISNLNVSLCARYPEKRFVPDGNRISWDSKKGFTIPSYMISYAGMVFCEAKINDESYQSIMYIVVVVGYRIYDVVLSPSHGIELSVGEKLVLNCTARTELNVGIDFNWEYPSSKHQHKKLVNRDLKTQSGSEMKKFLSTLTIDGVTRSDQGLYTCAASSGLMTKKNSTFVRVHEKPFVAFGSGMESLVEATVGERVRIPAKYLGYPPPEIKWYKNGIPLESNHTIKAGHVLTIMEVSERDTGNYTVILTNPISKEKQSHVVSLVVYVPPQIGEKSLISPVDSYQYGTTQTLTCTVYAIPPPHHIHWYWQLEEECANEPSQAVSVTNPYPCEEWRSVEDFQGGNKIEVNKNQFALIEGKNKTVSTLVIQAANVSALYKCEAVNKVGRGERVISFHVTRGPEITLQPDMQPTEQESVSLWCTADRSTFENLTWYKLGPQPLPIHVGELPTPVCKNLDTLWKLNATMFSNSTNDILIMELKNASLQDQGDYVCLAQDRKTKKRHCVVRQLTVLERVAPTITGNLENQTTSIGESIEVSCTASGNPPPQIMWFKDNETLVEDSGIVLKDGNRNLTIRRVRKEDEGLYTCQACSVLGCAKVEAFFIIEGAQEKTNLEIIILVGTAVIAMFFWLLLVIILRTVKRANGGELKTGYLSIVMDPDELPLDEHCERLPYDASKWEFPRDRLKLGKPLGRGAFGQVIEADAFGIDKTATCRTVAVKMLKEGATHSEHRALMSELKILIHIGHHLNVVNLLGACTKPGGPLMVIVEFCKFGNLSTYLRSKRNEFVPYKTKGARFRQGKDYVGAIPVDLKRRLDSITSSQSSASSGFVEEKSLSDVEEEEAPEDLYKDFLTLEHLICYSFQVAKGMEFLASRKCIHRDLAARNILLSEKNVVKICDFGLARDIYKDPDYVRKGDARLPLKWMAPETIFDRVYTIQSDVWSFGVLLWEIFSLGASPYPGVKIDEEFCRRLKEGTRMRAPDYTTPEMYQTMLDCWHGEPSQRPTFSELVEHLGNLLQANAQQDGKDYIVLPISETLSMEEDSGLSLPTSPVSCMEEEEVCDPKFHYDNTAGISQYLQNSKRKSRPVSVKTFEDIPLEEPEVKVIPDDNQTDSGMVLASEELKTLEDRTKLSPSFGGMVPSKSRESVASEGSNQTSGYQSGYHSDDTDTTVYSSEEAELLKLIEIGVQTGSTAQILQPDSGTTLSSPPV
Description: as §1
The cells were harvested and the homogenates were prepared in saline using a tight pestle homogenizer until complete cell disruption. The kit uses a double-antibody sandwich enzyme-linked immunosorbent assay (ELISA) to determine the level of human VEGFR-2 in samples. A monoclonal antibody for VEGFR-2 was pre-coated onto 96-well plates. The test samples are added to the wells and a biotinylated detection polyclonal antibody from goat specific for VEGFR-2 was added subsequently followed by washing with PBS buffer. Avidin-Biotin-Peroxidase complex was added and the unbound conjugates were washed away with PBS buffer. HRP substrate TMB was used to visualize HRP enzymatic reaction. TMB was catalyzed by HRP to produce a blue color product that changed into yellow after adding acidic stop solution. The density of yellow color is proportional to the human VEGFR-2 amount of the sample captured in the plate. The chroma of color and the concentration of the human VEGFR-2 of the samples were positively correlated and the optical density was determined at 450 nm. The level of human VEGFR-2 in samples was calculated (pg/ml) as duplicate determinations from the standard curve. Percent inhibition was calculated in comparison to control untreated cells.

[5] = tested on: liver HepG-2 cancer cell line; experiment: In vitro cytotoxic activity (MTT assay), HepG-2
Text: as §3

T1 sequence (O43570 25-354): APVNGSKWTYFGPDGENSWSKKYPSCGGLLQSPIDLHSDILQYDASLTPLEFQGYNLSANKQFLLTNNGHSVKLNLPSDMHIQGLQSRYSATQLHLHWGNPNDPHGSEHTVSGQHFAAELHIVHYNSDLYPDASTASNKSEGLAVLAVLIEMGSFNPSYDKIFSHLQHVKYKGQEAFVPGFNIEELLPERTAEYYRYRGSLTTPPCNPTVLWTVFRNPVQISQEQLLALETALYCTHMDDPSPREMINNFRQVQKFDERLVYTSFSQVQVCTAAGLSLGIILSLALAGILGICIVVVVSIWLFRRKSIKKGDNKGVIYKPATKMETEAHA

IC50 (hCA XII): 0.0359 µM | IC50 (hCA IX): 0.142 µM | melting point: 65 to 67 °C | IC50 (VEGFR-2): 181 ± 0.66 µM
Structure (SMILES): [N-]=[N+]=Nc1ccc(S(=O)(=O)NC2CCCCC2)cc1 [Compound 4, 4-Azido-N-cyclohexylbenzenesulfonamide]
percentage cytotoxicity on A-549 ([1]; 12.5 µM): 21.37±1.55% | percentage cytotoxicity on A-549 ([1]; 25 µM): 34.87±0.75% | percentage cytotoxicity on A-549 ([1]; 50 µM): 70.87±1.63% | percentage cytotoxicity on A-549 ([1]; 100 µM): 97.43±0.67% | inhibition at 100 µM ([1]; Homo sapiens, A549, 48 h, read-out: % inhibition ± SD A-549): 97.43 ± 0.67% | IC50 ([1]; Homo sapiens, A549, read-out: IC50 (mean ± SD) A-549): 30.9 ± 0.65 µM | percentage cytotoxicity on MCF-7 ([2]; 12.5 µM): 35.03±2.83% | percentage cytotoxicity on MCF-7 ([2]; 25 µM): 58.31±3.30% | percentage cytotoxicity on MCF-7 ([2]; 50 µM): 78.50±0.37% | percentage cytotoxicity on MCF-7 ([2]; 100 µM): 91.20±0.09% | inhibition at 100 µM ([2]; Homo sapiens, MCF7, 100 µM, 48 h, read-out: % inhibition ± SD MCF-7): 91.2 ± 0.09% | IC50 ([2]; Homo sapiens, MCF7, MCF-7 cells, MTT, read-out: IC50 (mean ± SD) MCF-7): 19.6 ± 1.1 µM | IC50 [3]: 78.3 ± 1.56 µM | percentage cytotoxicity on HCT-116 ([4]; 12.5 µM): 34.64±0.48% | percentage cytotoxicity on HCT-116 ([4]; 25 µM): 51.93±0.58% | percentage cytotoxicity on HCT-116 ([4]; 50 µM): 86.90±0.28% | percentage cytotoxicity on HCT-116 ([4]; 100 µM): 94.83±0.87% | inhibition at 100 µM ([4]; Homo sapiens, HCT-116, 100 µM, 48 h, read-out: % inhibition ± SD HCT-116): 94.83 ± 0.87% | IC50 ([4]; Homo sapiens, HCT-116 cells, MTT, read-out: IC50 (mean ± SD) HCT-116): 20.3 ± 0.33 µM | percentage cytotoxicity on HepG-2 ([5]; 12.5 µM): 85.13±1.65% | percentage cytotoxicity on HepG-2 ([5]; 25 µM): 86.23±0.98% | percentage cytotoxicity on HepG-2 ([5]; 50 µM): 85.67±2.50% | percentage cytotoxicity on HepG-2 ([5]; 100 µM): 87.30±0.91% | IC50 ([5]; Homo sapiens, HepG2, read-out: IC50 (mean ± SD) HepG-2): 12.5 ± 0.51 µM
